Consider 24 compounds from patent publication US9890152B2 (Genentech, Inc., priority 2012, dated 2018).

In one assay the target is T1, EGFR del746-750 T790M (Homo sapiens, UniProt P00533, DEL746-750/T790M).
T1 construct: purchased Carna Biosciences 08-528
The experiment in a line: EGFR del746-750 T790M biochemical assay (Caliper mobility shift). To be noted: 5 μM ATP, 30 min, room temperature; apparent Ki (Morrison) converted by Cheng-Prusoff, Km of ATP 2.1 μM; read-out: EGFR(T790M/d746-750) Ki.

The target in assay [1] is T2, phosphor-EGFR in H1975(L585R/T790M) mutant EGFR expressing cells (Homo sapiens, UniProt P00533, L858R/T790M).
T2 construct: host or cells: NCI-H1975
The assay is described as follows: H1975 pEGFR MSD cellular assay. Type of assay: cell-based. As to conditions: NCI-H1975 cells, serum starved, 1 hour compound incubation, pEGFR Tyr1068 MSD. As for the experimental part:
H1975 pEGFR MSD Cellular Assays Background:
These assays are intended for determining cellular. […] (Meso Scale Discovery Catalog# N31CB-1).
All cell culture reagents were purchased from Invitrogen/Gibco. Cells are cultured at 37° C. at 5% CO2 and split as recommended by ATCC.
Cell Plating and Serum Starvation:
After six hours, culture medium is aspirated and replaced with serum-free culture medium. Cells are then incubated with the serum-free medium overnight at 37° C. and 5% CO2.
The following day, test compounds are serially diluted in dimethyl sulfoxide (DMSO) and added to cells in serum free medium (final DMSO concentration 0.5%). Assay plates are then incubated for 1 hour at 37° C. and 5% CO2. Following 1 hour of compound incubation cells are then lysed and processed as per the MSD pEGFR assay kit protocol. Cell lysates are added to assay plates pre-coated with antibodies against phosphorylated EGFR. Phosphorylated EGFR in samples are allowed to bind to the capture antibodies overnight at 4° C. The detection antibody (anti-total EGFR, labeled with an electrochemiluminescent SULFO-TAG) is added to the bound lysate and incubated for 1 hour at room temperature. The MSD Read Buffer is added such that when a voltage is applied to the plate electrodes, the labels bound to the electrode surface emit light. The MSD Sector Instrument measures the intensity of the light, and quantitatively measures the amount of phosphorylated-EGFR in the sample. Percent inhibition of EGFR phosphorylation by varying concentrations of test compounds is calculated relative to untreated controls. EC50 values are calculated using the 4 parameter logistic nonlinear regression dose-response model.

T1 sequence (P00533 with tags, fused parts or gaps DEL746-750/T790M limits assumed): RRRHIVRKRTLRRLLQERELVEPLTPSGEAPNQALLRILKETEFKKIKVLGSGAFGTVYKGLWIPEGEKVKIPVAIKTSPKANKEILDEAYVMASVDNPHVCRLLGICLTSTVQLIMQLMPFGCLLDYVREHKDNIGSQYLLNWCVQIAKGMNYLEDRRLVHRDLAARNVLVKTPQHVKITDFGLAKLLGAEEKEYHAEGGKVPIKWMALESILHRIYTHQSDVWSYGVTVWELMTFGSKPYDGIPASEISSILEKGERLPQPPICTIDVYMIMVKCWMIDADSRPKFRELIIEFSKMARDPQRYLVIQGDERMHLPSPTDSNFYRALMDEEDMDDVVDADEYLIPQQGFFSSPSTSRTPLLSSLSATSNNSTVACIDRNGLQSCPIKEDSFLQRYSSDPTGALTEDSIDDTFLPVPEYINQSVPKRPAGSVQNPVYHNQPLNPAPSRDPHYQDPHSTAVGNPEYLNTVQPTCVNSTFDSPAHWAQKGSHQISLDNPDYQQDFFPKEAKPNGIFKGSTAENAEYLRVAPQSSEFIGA
T2 sequence (P00533 25-1210 T790M/L858R): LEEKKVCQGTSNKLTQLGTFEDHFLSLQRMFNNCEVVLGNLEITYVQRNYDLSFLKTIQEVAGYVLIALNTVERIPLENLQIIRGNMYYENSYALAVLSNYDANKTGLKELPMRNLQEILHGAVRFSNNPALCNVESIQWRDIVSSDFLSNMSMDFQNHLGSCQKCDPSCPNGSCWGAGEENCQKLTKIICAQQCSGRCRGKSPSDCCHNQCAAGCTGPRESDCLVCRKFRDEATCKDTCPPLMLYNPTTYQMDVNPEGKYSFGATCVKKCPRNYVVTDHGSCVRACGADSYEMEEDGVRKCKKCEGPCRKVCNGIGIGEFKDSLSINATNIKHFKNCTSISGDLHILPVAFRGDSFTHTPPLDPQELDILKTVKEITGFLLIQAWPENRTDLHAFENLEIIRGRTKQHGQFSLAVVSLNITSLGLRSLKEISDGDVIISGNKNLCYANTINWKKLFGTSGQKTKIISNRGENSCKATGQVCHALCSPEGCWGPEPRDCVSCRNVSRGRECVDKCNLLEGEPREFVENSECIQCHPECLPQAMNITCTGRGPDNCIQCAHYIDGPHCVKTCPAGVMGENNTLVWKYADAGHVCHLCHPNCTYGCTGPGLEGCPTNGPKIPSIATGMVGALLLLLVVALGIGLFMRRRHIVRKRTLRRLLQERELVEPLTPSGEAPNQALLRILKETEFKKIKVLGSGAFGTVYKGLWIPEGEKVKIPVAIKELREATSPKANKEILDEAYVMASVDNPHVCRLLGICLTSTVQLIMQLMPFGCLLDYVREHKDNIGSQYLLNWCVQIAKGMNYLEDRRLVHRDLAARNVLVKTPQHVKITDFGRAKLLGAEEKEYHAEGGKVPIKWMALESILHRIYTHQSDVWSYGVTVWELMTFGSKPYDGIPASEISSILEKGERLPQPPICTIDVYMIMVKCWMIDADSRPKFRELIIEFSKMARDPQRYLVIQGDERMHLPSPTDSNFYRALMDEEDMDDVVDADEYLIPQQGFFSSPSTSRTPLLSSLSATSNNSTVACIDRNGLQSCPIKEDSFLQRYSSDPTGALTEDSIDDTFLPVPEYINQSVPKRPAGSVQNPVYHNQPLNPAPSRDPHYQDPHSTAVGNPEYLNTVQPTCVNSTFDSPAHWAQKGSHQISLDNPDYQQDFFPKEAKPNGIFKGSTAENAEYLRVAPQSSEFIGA

For `CCNC(=O)c1cn(C(C)C)c2cc(Nc3ccnc(N4CCC(OC)CC4)n3)ncc12` [Example 57, N-Ethyl-1-isopropyl-6-((2-(4-methoxypiperidin-1-yl)pyrimidin-4-yl)amino)-1H-pyrrolo[3,2-c]pyridine-3-carboxamide], the Ki at EGFR del746-750 T790M is 0.0202 µM. The concentration giving a half-maximal response (EC50) (commonly the concentration that produces a half-maximal response) in assay [1] is 0.236 µM. As to `C[C@H](n1c([C@@H](C)O)nc2cnc(Nc3ccnc(N4CCC(O)C(F)C4)n3)cc21)C(F)(F)F` (mixture of isomers) [Example 296, cis-3-Fluoro-1-{4-[2-((R)-1-hydroxyethyl)-1-((S)-2,2,2-trifluoro-1-methylethyl)-1H-imidazo[4,5-c]pyridin-6-ylamino]pyrimidin-2-yl}piperidin-4-ol], on EGFR del746-750 T790M, the Ki amounted to 0.00504 µM. The compound further displayed a 50% effective concentration (EC50) in assay [1] of 0.189 µM. For `CC(C)n1cc(C(=O)NC2CCOCC2)c2cnc(Nc3ccnc(-c4cnn(S(=O)(=O)C5CC5)c4)n3)cc21` [Example 396], in that order: 0.00147 µM and 0.0769 µM.

`CC(C)n1c(C2CCCO2)nc2cnc(Nc3ccnc(-c4cnn(S(=O)(=O)C5CC5)c4)n3)cc21` (racemic) [Example 565, (±)-[2-(1-Cyclopropanesulfonyl-1H-pyrazol-4-yl)-pyrimidin-4-yl]-[1-isopropyl-2-(tetrahydro-furan-2-yl)-1H-imidazo[4,5-c]pyridin-6-yl]amine] showed an EC50 in assay [1] of 1.16 µM.

Consider `CCC(C)n1cc(C(=O)NC2CCOCC2)c2cnc(Nc3ccnc(N4CC[C@@H](OC)[C@@H](F)C4)n3)cc21` (single isomer, unassigned) [Example 376], for which the Ki on EGFR del746-750 T790M came to 0.00288 µM. The compound further registered a concentration for a half-maximal effect (EC50) in assay [1] of 0.0145 µM. For `CC1(C)COc2nc3cnc(Nc4ccnc(-c5cnn(S(=O)(=O)C6CC6)c5)n4)cc3n21` [Example 280, [2-(1-Cyclopropanesulfonyl-1H-pyrazol-4-yl)-pyrimidin-4-yl]-(3,3-dimethyl-2,3-dihydro-1-oxa-3a,6,8-triazacyclopenta[a]inden-5-yl)-amine], in that order: 0.00886 µM and 1.74 µM. The like results for `CCC(C)n1cc(C(=O)NC2CCOC2)c2cnc(Nc3ccnc(N4CCC(O)C(C)(C)C4)n3)cc21` (mixture of isomers) [Example 373, 1-(sec-butyl)-6-((2-(4-hydroxy-3,3-dimethylpiperidin-1-yl)pyrimidin-4-yl)amino)-N-(tetrahydrofuran-3-yl)-1H-pyrrolo[3,2-c]pyridine-3-carboxamide] were, in that order, 0.00444 µM and 0.0673 µM.

The compound `O=S(=O)(C1CC1)n1cc(-c2nccc(Nc3cc4c(cn3)nc(CO)n4-c3ccccc3)n2)cn1` [Example 475, (6-(2-(1-(cyclopropylsulfonyl)-1H-pyrazol-4-yl)pyrimidin-4-ylamino)-l-phenyl-1H-imidazo[4,5-c]pyridin-2-yl)methanol] yielded a 50% effective concentration (EC50) in assay [1] of 1.81 µM. For `COC1CCN(c2nccc(Nc3cc4c(cn3)nc([C@@H](C)O)n4[C@@H](C)C(F)(F)F)n2)CC1F` (stereo partly drawn) [Example 543, (R)-1-[6-[2-(3-Fluoro-4-methoxypiperidin-1-yl)-pyrimidin-4-ylamino]-1-((S)-2,2,2-trifluoro-1-methyl-ethyl)-1H-imidazo[4,5-c]pyridin-2-yl]ethanol], the Ki on EGFR del746-750 T790M was determined as 0.00581 µM. In assay [1], this compound registered an EC50 of 0.0247 µM.

Regarding `COCC(C)(C)n1c(C)nc2cnc(Nc3ccnc(N4CCC(OC)CC4)n3)cc21` [Example 164, [1-(2-Methoxy-1,1-dimethylethyl)-2-methyl-1H-imidazo[4,5-c]pyridin-6-yl]-[2-(4-methoxypiperidin-1-yl)pyrimidin-4-yl]amine], it took 4.71 µM to reach a half-maximal effect in assay [1] (EC50).

As to `COC1CCN(c2nccc(Nc3cc4c(cn3)nc(COCCN(C)C)n4C(C)C)n2)CC1` [Example 8, [2-(2-Dimethylaminoethoxymethyl)-1-isopropyl-1H-imidazo[4,5-c]pyridin-6-yl]-[2-(4-methoxypiperidin-1-yl)pyrimidin-4-yl]amine], the Ki at EGFR del746-750 T790M turned out to be 0.106 µM. This compound came in with a half-maximal effective concentration (EC50) in assay [1] of 0.585 µM. The like results for `CC(C)n1c(CO)nc2cnc(Nc3ccnc(N4C[C@H]5CC[C@@H](C4)[C@H]5O)n3)cc21` [Example 433, (1R,5S,8r)-3-(4-((2-(hydroxymethyl)-1-isopropyl-1H-imidazo[4,5-c]pyridin-6-yl)amino)pyrimidin-2-yl)-3-azabicyclo[3.2.1]octan-8-ol] were, in that order, 0.0172 µM and 2.19 µM. For `CCNc1ncc(-c2nccc(Nc3cc4c(cn3)nc(C)n4C(C)C)n2)s1` [Example 295, [2-(2-Ethylaminothiazol-5-yl)pyrimidin-4-yl](1-isopropyl-2-methyl-1H-imidazo[4,5-c]pyridin-6-yl)amine], in that order: 0.00177 µM and 0.0806 µM.

Regarding `CC(=O)Nc1cn(C(C)C)c2cc(Nc3ccnc(-c4cnn(S(=O)(=O)C5CC5)c4)n3)ncc12` [Example 327, N-(6-((2-(1-(Cyclopropylsulfonyl)-1H-pyrazol-4-yl)pyrimidin-4-yl)amino)-1-isopropyl-1H-pyrrolo[3,2-c]pyridin-3-yl)acetamide], the Ki on EGFR del746-750 T790M was found to be 0.00053 µM. The concentration giving a half-maximal response (EC50) in assay [1] was 0.105 µM.

Turning to `CCC(C)n1cc(C(=O)NC2CCOCC2)c2cnc(Nc3ccnc(N4CCC(O)C(C)(C)C4)n3)cc21` (mixture of isomers) [Example 383, 1-(sec-butyl)-6-((2-(4-hydroxy-3,3-dimethylpiperidin-1-yl)pyrimidin-4-yl)amino)-N-(tetrahydro-2H-pyran-4-yl)-1H-pyrrolo[3,2-c]pyridine-3-carboxamide], at EGFR del746-750 T790M, the Ki came out at 0.00281 µM. The same compound gave an EC50 in assay [1] of 0.0347 µM. For `COC1CCN(c2nccc(Nc3cc4c(cn3)nc(C(F)F)n4C(C)C)n2)CC1` [Example 110, 2-(difluoromethyl)-1-isopropyl-N-(2-(4-methoxypiperidin-1-yl)pyrimidin-4-yl)-1H-imidazo[4,5-c]pyridin-6-amine], in that order: 0.144 µM and 0.623 µM. For `COC1CCN(c2nccc(Nc3cc4c(cn3)nc(C)n4C(C)C)n2)CC1` [Example 5, (1-Isopropyl-2-methyl-1H-imidazo[4,5-c]pyridin-6-yl)-[2-(4-methoxypiperidin-1-yl)pyrimidin-4-yl]amine], in that order: 0.0477 µM and 0.871 µM.

For `COC1CCN(c2nccc(Nc3cc4c(cn3)c(-c3nnc(C)o3)cn4C(C)C)n2)CC1` [Example 59, 1-Isopropyl-N-(2-(4-methoxypiperidin-1-yl)pyrimidin-4-yl)-3-(5-methyl-1,3,4-oxadiazol-2-yl)-1H-pyrrolo[3,2-c]pyridin-6-amine], the Ki on EGFR del746-750 T790M was 0.0287 µM. Further, the half-maximal effective concentration (EC50) in assay [1] came out at 0.583 µM.

Regarding `CC1(C)CCOc2nc3cnc(Nc4ccnc(-c5cnn(S(=O)(=O)C6CC6)c5)n4)cc3n21` [Example 534, [2-(1-Cyclopropanesulfonyl-1H-pyrazol-4-yl)-pyrimidin-4-yl]-(4,4-dimethyl-3,4-dihydro-2H-1-oxa-4a,7,9-triazafluoren-6-yl)amine], the Ki at EGFR del746-750 T790M was found to be 0.00561 µM. Also, in assay [1], the EC50 came out at 1.37 µM. `COc1ccc(-c2nccc(Nc3cc4c(cn3)ncn4C(C)C)n2)cn1` [Example 54, 1-Isopropyl-N-(2-(6-methoxypyridin-3-yl)pyrimidin-4-yl)-1H-imidazo[4,5-c]pyridin-6-amine] came in with a concentration for a half-maximal effect (EC50) in assay [1] of 3.57 µM. That is a single-digit micromolar value. Still for that read-out and setting: next, `COC1(CN)CCN(c2nccc(Nc3cc4c(cn3)nc(C)n4C(C)C)n2)CC1` [Example 271, [2-(4-Aminomethyl-4-methoxypiperidin-1-yl)pyrimidin-4-yl](1-isopropyl-2-methyl-1H-imidazo[4,5-c]pyridin-6-yl)amine]: 5.75 µM; `C[C@H](n1c([C@@H](C)O)nc2cnc(Nc3ccnc(-c4cnn(S(=O)(=O)C5CC5)c4)n3)cc21)C(F)(F)F` [Example 572, (R)-1-[6-[2-(1-Cyclopropanesulfonyl-1H-pyrazol-4-yl)-pyrimidin-4-ylamino]-1-((S)-2,2,2-trifluoro-1-methylethyl)-1H-imidazo[4,5-c]pyridin-2-yl]-ethanol]: 0.167 µM; `CC(C)n1cc(C2CNC(=O)C2)c2cnc(Nc3ccnc(-c4cnn(S(=O)(=O)C5CC5)c4)n3)cc21` (stereo not shown) [Example 256, 4-(6-(2-(1-(Cyclopropylsulfonyl)-1H-pyrazol-4-yl)pyrimidin-4-ylamino)-1-isopropyl-1H-pyrrolo[3,2-c]pyridin-3-yl)pyrrolidin-2-one]: 1.05 µM.

On to `CC(C)n1cc(C(=O)NC2COC2)c2cnc(Nc3ccnc(-c4cnn(S(=O)(=O)N(C)C)c4)n3)cc21` [Example 378, 6-((2-(1-(N,N-dimethylsulfamoyl)-1H-pyrazol-4-yl)pyrimidin-4-yl)amino)-1-isopropyl-N-(oxetan-3-yl)-1H-pyrrolo[3,2-c]pyridine-3-carboxamide], for which the EC50 in assay [1] turned out to be 0.177 µM.
